Test results reported in patent publication US11629169B2, “Use of peptides as therapeutic agent for autoimmune diseases and bone diseases” (KINE SCIENCES CO., LTD., priority 2017, dated 2023).

Experiments:
[1] = tested on: collagen-induced arthritis (CIA) mouse model; experiment: Rheumatoid arthritis treatment effect in collagen-induced arthritis (CIA) mouse model; format: in vivo, DBA/1J mouse; conditions: CIA mice, intraperitoneally 3 times a week after second immunization; similar efficacy compared to positive control MTX
Method: In order to confirm a rheumatoid arthritis improvement effect of the peptides prepared in Example 1, a rheumatoid arthritis mouse model was prepared with reference to a known literature (Nat Protoc. 2007; 2 (5):
Specifically, a CIA mouse model is a mouse model most commonly used in a rheumatoid arthritis animal test as an autoimmune disease arthritis model having characteristics similar to human rheumatoid arthritis. In the CIA mouse model, bovine type II collagen (Chondrex, USA) was mixed and emulsified with a Freund's complete adjuvant (Chondrex, USA) at 1:1, and then first immunization was performed by injecting 50 μl of the emulsified collagen solution intradermally into a 6-week-old DBA/1J mouse tail. On 2 weeks after the first immunization, bovine type II collagen was mixed and emulsified with a Freund's incomplete adjuvant (Chondrex, USA) at 1:1, and then second immunization (boosting) was performed by injecting 50 μl of the emulsified collagen solution induced) intradermally into the mouse tail. After the second immunization, each peptide was intraperitoneally administered 3 times a week from the following day to observe a therapeutic effect of the peptides for rheumatoid arthritis.
In order to examine the progression of rheumatoid arthritis according to the peptide treatment of the present invention, the severity of rheumatoid arthritis over time was evaluated and measured by a rheumatoid arthritis progress index.
At this time, the arthritis progress index was evaluated as Points 0 to 4 per leg in accordance with the arthritis progress evaluation criteria by Rossoliniec, etc. in Table 2 below and shown to total Points 0 to 16 (sum of four legs). Thereafter, an average value of the results evaluated by the two observers was calculated to quantify the severity of arthritis.

[2] = tested on: naive CD4+ T cells extracted from lymph nodes of the mouse; experiment: Th17 cell differentiation inhibition (CD4+IL-17+ T cell population); format: cell-based; conditions: IL-6 20 ng/ml and TGF-beta 5 ng/ml with TCR activation; peptide 10 ng/ml to 1000 ng/ml; 3 days; induced group 3.14%, non-induced 1.2%
Method: In order to confirm the efficacy of the synthetic peptides prepared in Example 1 to inhibit Th17 cell differentiation, naive CD4^+ T cells extracted from lymph nodes of the mouse were treated with IL-6 20 ng/ml and TGF-beta 5 ng/ml together with TCR activation to induce differentiation into Th17 cells.
At the same time, three peptides Pep2, Pep3, and Pep4 disclosed in Table 2 of Test Example 1 were treated at a concentration of 10 ng/ml to 1000 ng/ml, respectively. Then, after incubation for 3 days, CD4+IL-17+ T cell population was analyzed.

Row | Substance | arthritis improvement (arthritis progress index, total Points 0 to 16) [1] | ratio of Th17 cells (CD4+IL-17+ T cell population) [2]
1 | STSSTS (Pep6) | efficacy of arthritis improvement was shown | –
2 | PSSPSS (Pep1) | efficacy of arthritis improvement was shown | –
3 | SSPSSP (Pep2) | efficacy of arthritis improvement was shown | reduced similarly to the group that did not induce differentiation
4 | PTPPTP (Pep3) | – | reduced similarly to the group that did not induce differentiation
5 | PTSPTS (Pep4) | efficacy of arthritis improvement was shown | reduced similarly to the group that did not induce differentiation
